Laboratory results published in article PMC9428149, “Tackling recalcitrant Pseudomonas aeruginosa infections in critical illness via anti-virulence monotherapy” (Nature Communications, 2022).
≈ marks a conversion by molar mass, not a printed value. Like-named read-outs stand apart in the source and are kept apart here.

Columns and labels:
[1] = tested on: pyocyanin production in PA14; assay: Pyocyanin production assay; settings: Pseudomonas aeruginosa
[2] = Solubility in iPBS pH 7.4 by HPLC; assay type: physicochemical; settings: isotonic phosphate buffer (iPBS), aqueous with cosolvent or surfactant or cyclodextrin, kinetic from dmso stock; iPBS pH 7.4, HPLC; read-out: Solubility (M) in PBS
Method: Solubility of the 10 mM compounds dissolved in DMSO was tested in the isotonic phosphate buffer (iPBS) at pH 7.4 using High-Performance Liquid Chromatography (HPLC). For the preparation of iPBS phosphate-buffered saline tab (Sigma-Aldrich 08057-12Tab-F) is dissolved in 500 mL of deionized water and the final composition of the solution contains 10 mM PBS, 2.7 mM KCl, 140 mM NaCl and 0.05% Tween. A total 10 µL of the compound from a 10 mM stock solution in DMSO was added to the vial, and 190 µL of buffer was added to each vial and mixed with shaking at room temperature for 4 h. Thereafter the samples were filtered, and 160 µL of the sample was mixed with 40 µL of DMSO for the final injection. Ibuprofen (high solubility) and Progesterone (low Solubility) were used as standard compounds. Ammonium Acetate aqueous solution (50 mM, pH 7.4) and the acetonitrile were used as mobile phases A and B, respectively. The measurement of concentration was achieved by comparing of UV absorbance of the sample solution and the known standard solution following an HPLC separation using a generic fast gradient method. The solubility of each compound is expressed by the ratio of compound amount in the sample test solution to the amount of compound in the standard solution.

[3] = tested on: MvfR-regulated small molecules in PA14; assay: Production of HAQs, 2-AA, DHQ and AA in PA14 cultures (LC-MS); settings: Pseudomonas aeruginosa
Method: The HAQs HHQ, PQS, HQNO, and non-HAQs: 2-AA and DHQ produced by PA14 cells were quantified in the presence of NAMs. The overnight grown starter culture was diluted 1:100 in 5 mL LB media in a glass tube and was allowed to grow in the presence (50 µM) or absence of compound at 37 °C and 200 rpm in an incubator shaker until OD600 was 3. Bacterial cultures were subsequently mixed 1:1 (400 μL: 400 μL) with 100% methanol containing 20 ppm (20 μg mL^−1) of tetradeutero-PQS (PQS-D4) and 10 ppm of tetradeutero-HHQ (HHQ-D4) in a 1.5 mL Eppendorf tube. The mixture was vortexed for 5 seconds and spun down for 5 minutes at 12,000 x g. A 700 μL aliquot of the supernatant was removed and stored in glass vials at −20 °C until further liquid chromatography-mass spectrophotometry (LC/MS) analysis as previously described in Lepine et al., 2003[66]. LC/MC analysis was performed using a Micromass Quattro II triple quadrupole mass spectrometer (Micromass Canada, Pointe-Claire, Canada) in positive electrospray ionization mode, interfaced to an HP1100 HPLC equipped with a 4.5 × 150 mm reverse-phase C8 column.
GraphPad Prism 9.2.0 software was used to plot the IC50 curve against the percent inhibition of these small molecules’ production at each concentration.

[4] = tested on: PA14 isogenic mutant ΔmvfR AT/P cells; assay: AT/P cell formation in ΔmvfR mutant (off-target); settings: Pseudomonas aeruginosa, PA14, 24 h, read-out: AT/P cell formation, ΔmvfR + compound; PA14 about 100; single replicates (Figure 4b)
[5] = tested on: pqsA promoter (PA14 PpqsA-GFPASV); assay: pqsA-GFP reporter expression; assay type: cell-based, Pseudomonas aeruginosa; settings: Pseudomonas aeruginosa
PA14 AT/P cells = assay: AT/P cells formation assay in PA14; assay type: cell-based, Pseudomonas aeruginosa; settings: Pseudomonas aeruginosa, PA14, 24 h, read-out: inhibition of AT/P cells formation
[6] = tested on: mvfR mutant constitutively expressing the pqsABCDE operon; assay type: cell-based; settings: Pseudomonas aeruginosa, control about 100, single replicates (Figure 4a)
MvfR protein (MvfRC87) = target: T1, MvfR protein (MvfRC87) (Pseudomonas aeruginosa, UniProt Q9I4X0); assay type: binding; settings: SPR
T1 construct: The MvfRC87 protein purified as in Xiao et. al., 2006; made in house
Method: The selected compounds were tested for their ability to bind to MvfR. Target validation was carried out by using surface plasmon resonance (SPR). The MvfRC87 protein purified as in Xiao et. al., 2006[33] was covalently immobilized on a CM7 Series S sensor chip using an amine coupling reagent kit (GE Healthcare) at the range level of 3000 to 5000 response units (RU). RU was analyzed by Biacore T200 evaluation software 2.0 (GE Healthcare). The relative response units (RUs) 5 seconds before the end of the association were extracted from the double-reference-corrected sensor grams at different concentrations. These responses were plotted against their respective concentrations for MvfR inhibitor alone and in the presence of native MvfR ligand PQS and compared to the calculated responses for the mixture expected for different binding sites.

[7] = tested on: 16 MDR P. aeruginosa clinical isolates; assay: Pyocyanin production in MDR clinical isolates; settings: Pseudomonas aeruginosa, 18 h, Control about 100, replicates
Method: The over-day culture was grown to OD600nm 1.5., diluted again at 1:10,000 in 5 mL LB and incubated with 10 μM of the test compound or the vehicle control for 18 hours at 37 °C and 200 rpm in an incubator shaker. After 18 h, 1 mL of culture was centrifuged for 2 min at 20.000 x g. The supernatant was transferred to a new tube, 200 μL of this were loaded in a flat-bottom 96-well plate, and the pyocyanin levels were quantified by measuring at OD690nm in the infinite F200 plate reader using the Magellan software (Tecan, Switzerland). The same procedure was also followed for the pyocyanin production assessment for all the P. aeruginosa clinical isolates assessed in this study. The percent of pyocyanin was calculated compared to the PA14 culture grown in the absence of compounds.
Pyocyanin production was measured in 16 P.
aeruginosa clinical isolates 18hr post-growth in the presence or absence of 10 µM of each NAM
compound. The percent of pyocyanin production was calculated by comparing the same strain grown
in the presence of the vehicle control. b.

T1 sequence (Q9I4X0 87-332): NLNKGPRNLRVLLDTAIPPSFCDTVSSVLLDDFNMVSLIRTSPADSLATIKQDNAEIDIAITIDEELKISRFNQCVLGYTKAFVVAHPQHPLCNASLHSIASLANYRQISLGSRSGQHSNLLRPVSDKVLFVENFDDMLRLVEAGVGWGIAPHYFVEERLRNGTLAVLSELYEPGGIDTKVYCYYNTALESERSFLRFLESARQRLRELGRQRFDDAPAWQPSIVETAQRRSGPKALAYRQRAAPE

For `N#Cc1ccc(NC(=O)CC(=O)Nc2ccc(Br)cc2)cc1` [D42], the activity at 50 µM ([1]; PA14, 18 h, read-out: % Production Pyocyanin) was 6%, the IC50 ([1]; PA14, read-out: IC50 pyocyanin production) was 1340 nM and the solubility at 4 h [2] was 1.5e-05 M (≈ 5.37 µg/mL). For the same compound, the activity at 50 µM ([3]; PA14, read-out: % Production 2-AA) was 6%, the activity at 50 µM ([3]; PA14, read-out: % Production AA) was 701% and the activity at 50 µM ([3]; PA14, read-out: % Production DHQ) was 11%. For the same compound, the activity at 50 µM ([3]; PA14, read-out: % Production HHQ) was 2%, the activity at 50 µM ([3]; PA14, read-out: % Production HQNO) was 14% and the activity at 50 µM ([3]; PA14, read-out: % Production PQS) was 8%. It also gave an inhibition at 50 µM ([3]; PA14, read-out: HHQ production inhibition) of 89 to 99%, an inhibition at 50 µM ([3]; PA14, read-out: HQNO production inhibition) of 40 to 92% and an inhibition at 50 µM ([3]; PA14, read-out: PQS production inhibition) of 76 to 97%. It also gave an inhibition at 50 µM ([3]; PA14, read-out: inhibition of 2-AA production) of 82 to 95%, an inhibition at 50 µM ([3]; PA14, read-out: inhibition of DHQ production) of 82 to 96% and an activity at 10 µM [4] of 25.1%. The activity at 50 µM ([5]; PA14, read-out: % Production pqsA-GFP) was 8%, the IC50 ([5]; PA14, read-out: IC50 pqsA-GFP expression, PA14, 13 concentrations) was 920 nM and the inhibition at 10 µM (PA14 AT/P cells) was ≥ 76%. For the same compound, the activity at 50 µM ([6]; read-out: HQNO, ΔmvfR-pqsABCD strain) was 90.7%, the activity at 50 µM ([6]; read-out: PQS, ΔmvfR-pqsABCD strain) was 98.9% and the “Response Unit (RU)” value (MvfR protein (MvfRC87); Concentration 1.00E-05 M) was 30 RU. The “Response Unit (RU)” value (MvfR protein (MvfRC87); Concentration 1.00E-06 M) was 23 RU, the “Response Unit (RU)” value (MvfR protein (MvfRC87); Concentration 1.00E-07 M) was 10.1 RU and the “Response Unit (RU)” value (MvfR protein (MvfRC87); Concentration 1.00E-08 M) was 2.1 RU. For the same compound, the “Response Unit (RU)” value (MvfR protein (MvfRC87); Concentration 3.16E-06 M) was 27.4 RU, the “Response Unit (RU)” value (MvfR protein (MvfRC87); Concentration 3.16E-07 M) was 16.8 RU and the “Response Unit (RU)” value (MvfR protein (MvfRC87); Concentration 3.16E-08 M) was 5 RU. The activity at 10 µM ([7]; read-out: Pyocyanin production relative to Control, clinical isolate LGR-4325) was 15.2%, the activity at 10 µM ([7]; read-out: Pyocyanin production relative to Control, clinical isolate LGR-4326) was 9.87% and the activity at 10 µM ([7]; read-out: Pyocyanin production relative to Control, clinical isolate LGR-4327) was 23.8%. It also gave an activity at 10 µM ([7]; read-out: Pyocyanin production relative to Control, clinical isolate LGR-4328) of 15.7%, an activity at 10 µM ([7]; read-out: Pyocyanin production relative to Control, clinical isolate LGR-4330) of 16.4% and an activity at 10 µM ([7]; read-out: Pyocyanin production relative to Control, clinical isolate LGR-4331 (first section, r117)) of 17.2%. For the same compound, the activity at 10 µM ([7]; read-out: Pyocyanin production relative to Control, clinical isolate LGR-4331 (second section, r140)) was 10%, the activity at 10 µM ([7]; read-out: Pyocyanin production relative to Control, clinical isolate LGR-4333) was 11.6% and the activity at 10 µM ([7]; read-out: Pyocyanin production relative to Control, clinical isolate LGR-4343) was 15.3%. It also gave an activity at 10 µM ([7]; read-out: Pyocyanin production relative to Control, clinical isolate LGR-4344) of 19.4%, an activity at 10 µM ([7]; read-out: Pyocyanin production relative to Control, clinical isolate LGR-4348) of 11.9% and an activity at 10 µM ([7]; read-out: Pyocyanin production relative to Control, clinical isolate LGR-4356) of 16.3%. The activity at 10 µM ([7]; read-out: Pyocyanin production relative to Control, clinical isolate LGR-4362) was 26.2%, the activity at 10 µM ([7]; read-out: Pyocyanin production relative to Control, clinical isolate LGR-4363) was 20.8% and the activity at 10 µM ([7]; read-out: Pyocyanin production relative to Control, clinical isolate LGR-4364 (first section, r326)) was 16.1%. For the same compound, the activity at 10 µM ([7]; read-out: Pyocyanin production relative to Control, clinical isolate LGR-4364 (second section, r349)) was 16.4%.
